Assay results taken from article PMC10044120, “Potent and selective covalent inhibition of the papain-like protease from SARS-CoV-2” (Nature Communications, 2023).
Values joined by “and” are separate entries in the source; they are usually repeats but may differ in a detail not shown here. Identical values can stand only once. Like-named read-outs stand apart in the source and are kept apart here.

Assays:
in vitro = settings: African green monkey, cytotoxicity, %cell viability
Vero E6 cells = settings: African green monkey, 48 h
[1] = system: SARS-CoV-2 isolate USA-WA1/2020; settings: for inhibition: read-out: cytopathic effect, % cell viability, duplicate wells
PLpro from SARS-CoV-2 [2] = target: T1, PLpro from SARS-CoV-2 (Severe acute respiratory syndrome coronavirus 2, UniProt P0DTD1); assay: biochemical; type: biochemical; settings: for remaining activity at 0.06 µM: inhibitor 0.06 uM; for remaining activity at 6.34 µM: inhibitor 6.34 uM; for IC50: after 30-min incubation
PLpro from SARS-CoV-2 [3] = target: T1, PLpro from SARS-CoV-2; assay: biochemical; type: biochemical; settings: fluorogenic peptide assay, varied preincubation time
PLpro = PLpro (Severe acute respiratory syndrome coronavirus 2, UniProt P0DTD1); assay: Intact protein ESI-MS to assess covalent adduct formation; type: binding, SARS-CoV-2; set-up: unit not given here
[4] = system: SARS-CoV-2 isolate USA-WA1/2020; assay: microbe, parasite or virus in culture; settings: for inhibition at 2.08 µM: Severe acute respiratory syndrome coronavirus 2, Vero C1008, read-out: cytopathic effect, % cell viability, [inhibitor] 2.08 uM
[5] = Metabolic stability in rat liver S9 fraction; settings: Sprague-Dawley
[6] = Metabolic stability in rat liver microsomes; settings: Sprague-Dawley
[7] = Metabolic stability in mouse liver microsomes; settings: CD-1, mouse
[8] = Metabolic stability in mouse liver S9 fraction; settings: CD-1, mouse
[9] = purified PLpro, Z-RLRGG-AMC substrate

| SMILES | viability at 48 h, 2.08 µM (in vitro) [%] | viability at 48 h, 16.67 µM (in vitro) [%] | cytotoxicity, %cell viability (Vero E6 cells; 2.08 µM) [%] | cytotoxicity, %cell viability (Vero E6 cells; 16.67 µM) [%] | remaining activity at 0.06 µM (PLpro from SARS-CoV-2 [2]; 0.5 h) [%] | remaining activity at 6.34 µM (PLpro from SARS-CoV-2 [2]; 0.5 h) [%] | IC50 (PLpro from SARS-CoV-2 [2]; [9]) [µM] | Time dep. (time-dependent inhibition) (PLpro from SARS-CoV-2 [3]) | viability at 48 h, 8.33 µM (in vitro) [%] | cytotoxicity, %cell viability (Vero E6 cells; 8.33 µM) [%] | inhibition ([1]; [inhibitor] 2.08 uM, 2.08 µM) [%] | inhibition at 2.08 µM ([4]; duplicate wells) [%] | other results |
| --- | --- | --- | --- | --- | --- | --- | --- | --- | --- | --- | --- | --- | --- |
| C[C@@H](NC(=O)c1ccccc1CCC(=O)NNC(=O)C(C#N)=CC1CC1)c1cccc2ccccc12 [Compound 13, (R)-2-(3-(2-(2-cyano-3-cyclopropylacryloyl)hydrazineyl)-3-oxopropyl)-N-(1-(naphthalen-1-yl)ethyl)benzamide] | 83.5 | 0.88 | 72.90 | 0.71 | 101 | 109 | > 200 | not and No | – | – | – | – | EC50 (cytopathic effect) ([1]; SARS-CoV-2-infected Vero E6 cells, 48 h): No CPE; remaining activity at 0.2 µM (PLpro from SARS-CoV-2 [2]; 0.5 h, inhibitor 0.20 uM): 107%; remaining activity at 20 µM (PLpro from SARS-CoV-2 [2]; 0.5 h, inhibitor 20.00 uM): 90.5% |
| CC(=O)Nc1ccc(CCC(=O)NNC(=O)CCl)c(C(=O)N[C@H](C)c2cccc3ccccc23)c1 [Compound 10, (R)-5-acetamido-2-(3-(2-(2-chloroacetyl)hydrazineyl)-3-oxopropyl)-N-(1-(naphthalen-1-yl)ethyl)benzamide] | 92.2 | 81.5 | 80.200 | 73.170 | 102 | 37.2 | – | – | 84.4 | 79.780 | 1.32 | 2.2 | viability at 48 h, 33.33 µM (in vitro): 73.4%; cytotoxicity, %cell viability (Vero E6 cells; 33.33 µM): 66.030%; remaining activity at 0.02 µM (PLpro from SARS-CoV-2 [2]; 0.5 h, inhibitor 0.02 uM): 90.3%; remaining activity at 2.01 µM (PLpro from SARS-CoV-2 [2]; 0.5 h, inhibitor 2.01 uM): 80.3%; IC50 (PLpro from SARS-CoV-2 [2]; […]): 4.4 µM; Measured adduct mass (PLpro): 460 |
| C[C@@H](NC(=O)c1ccccc1CCC(=O)NN)c1cccc2ccccc12 [Compound 5, (R)-2-(3-hydrazineyl-3-oxopropyl)-N-(1-(naphthalen-1-yl)ethyl)benzamide] | 101 | – | 100.12 | – | – | – | 24 | No | 97 | 100.79 | 7.12 | 11.2 | viability at 48 h, 16.65 µM (in vitro): 94.8%; cytotoxicity, %cell viability (Vero E6 cells; 16.65 µM): 89.16%; inhibition ([1]; [inhibitor] 8.33 uM, 8.33 µM): 8.31%; inhibition ([1]; [inhibitor] 16.65 uM, 16.65 µM): 2.6%; remaining activity at 19.5 µM (PLpro from SARS-CoV-2 [2]; 0.5 h, inhibitor 19.50 uM): 46.4%; remaining activity at 100 µM (PLpro from SARS-CoV-2 [2]; 0.5 h, inhibitor 100.00 uM): 13.9%; remaining activity at […] (PLpro from SARS-CoV-2 [2]; 0.5 h, read-out: % Plpro activity): 103% and 109%; inhibition at […] ([4]; Severe acute respiratory syndrome coronavirus 2, Vero C1008, read-out: cytopathic effect, % cell viability): 11.2%; inhibition at 8.33 µM ([4]; Severe acute respiratory syndrome coronavirus 2, Vero C1008, read-out: cytopathic effect, % cell viability, [inhibitor] 8.33 uM, duplicate wells): 8.24%; inhibition at 16.65 µM ([4]; Severe acute respiratory syndrome coronavirus 2, Vero C1008, read-out: cytopathic effect, % cell viability, [inhibitor] 16.65 uM, duplicate wells): 2.95% |
| CC(C)NCC(O)COc1cccc2ccccc12 (stereo not shown) [propranolol, reference compound] | – | – | – | – | – | – | – | – | – | – | – | – | half-life [5]: 3 min; half-life [6]: 3 min; half-life [7]: 20 min; half-life [8]: 6 min |
